Reference: patent publication US20060128720A1, “Inhibition of cell death responses induced by oxidative stress” (priority 2002, published 2006)

How the values were obtained:
[1] = system: mouse embryo fibroblasts (MEFs); test: H2O2-induced apoptosis (sub-G1 DNA, propidium iodide) in MEFs; type: cell-based; details: 10 μM 24 hours, then 1 mM H2O2 18 hours
Procedure: (§1) Ethanol-fixed cells were stained with propidium iodide and monitored for sub-G1 DNA (upper panels). The percentage (mean±S.E.) of cells with sub-G1 DNA was determined from three separate experiments (lower panels).
(§2) Ethanol-fixed cells were stained with propidium iodide and monitored for sub-G1 DNA by FACScan (Becton-Dickinson) (FIGS. 3A and 3C). The percentage (mean±S.E.) of cells with sub-G1 DNA was determined from three separate experiments (FIGS. 3B and 3D).

[2] = system: mouse embryo fibroblasts (MEFs); test: Mitochondrial transmembrane potential (Rhodamine123 flow cytometry) in MEFs; type: cell-based; details: 10 μM 24 hours
Procedure: The cells were stained with 50 ng/ml Rhodamine123 for 15 minutes and analyzed by flow cytometry (left panels).
The cells were stained with 50 ng/ml Rhodamine123 (Molecular Probes) for 15 minutes at 37° C. Samples were analyzed by flow cytometry using 488 nm excitation and measurement of emission through a 576/26 (ethidium) bandpass filter (FIGS. 2A and 2B, left panels).

U-937 cells = test: H2O2-induced apoptosis (sub-G1 DNA, propidium iodide) in U-937 cells; type: cell-based, human; details: 10 μM 24 hours, then 1 mM H2O2 18 hours
Procedure: as §1, §2

For Cc1ccc(NC(=O)c2ccc(CN3CCN(C)CC3)cc2)cc1Nc1nccc(-c2cccnc2)n1 [STI571, 4-[(4-Methyl-1-piperazinyl)methyl]-N-[4-methyl-3-[[4-(3-pyridinyl)-2-pyrimidinyl]amino-]-phenyl]benzanide methanesulfonate], the “decrease of H2O2-induced apoptosis (cells with sub-G1 DNA)” value [1] was 50%, the “effect of STI571 alone on mitochondrial transmembrane potential” value ([2]; no H2O2) was “no apparent effect” and the “H2O2-induced decrease in mitochondrial transmembrane potential” value ([2]; then 1 mM H2O2 6 hours) was “substantially inhibited”. The “inhibitory effects on loss of mitochondrial transmembrane potential at longer periods of H2O2 exposure” value ([2]; then H2O2 18 hours) was “detectable” and the “inhibition of H2O2-induced apoptosis (cells with sub-G1 DNA)” value (U-937 cells) was “over 80%”.
